Among the data in patent US5693650A, “4-(Quinolin-2-yl-methoxy)-phenyl-acetic acid derivatives” (Bayer Aktiengesellschaft, priority 1994, dated 1997) are IC50 values, retold here.

The subject of the assay is ApoB-100-associated lipoproteins. Kind of assay: Inhibition of the release of ApoB-100-associated lipoproteins from liver cells (HepG2), immunoassay for human LDL. The format is cell-based. The settings on record: release of ApoB-100-associated particles into HepG2 culture supernatant, 50% inhibition of light adsorption at 450 nm vs solvent control. The procedure:
The test for detection of the inhibition of the release of ApoB-100-associated lipoproteins from liver cells was carried out in vitro with cultured liver cells, preferably with cells of the human line HepG2. These cells are grown under standard conditions in a medium for culture of eukaryotic cells, preferably in RPMI 1640, with 10% of foetal calf serum. HepG2 cells synthesize and secrete into the culture supernatant ApoB-100-associated lipoprotein particles, which in principle are built up in a similar manner to the VLDL and LDL particles which are to be found in the plasma.
These particles can be detected with an immunoassay for human LDL. This immunoassay is carried out with antibodies which have been induced against human LDL in the rabbit under standard conditions. The anti-LDL antibodies (rab-anti-LDL-ab) were purified by affinity chromatography on an immunosorbent with human LDL. These purified rab-anti-LDL-ab are adsorbed onto the surface of plastic. This adsorption is expediently carried out on the plastic surface of microtiter plates having 96 wells, preferably on MaxiSorp plates (Nunc). If ApoB-100-associated particles are present in the supernatant of HepG2 cells, these can bind to the insolubilized rab-anti-LDL-ab, and an immune complex which is bonded to the plastic surface is formed. Non-bonded proteins are removed by washing. The immune complex on the plastic surface is detected with monoclonal antibodies, which had been induced against human LDL according to standard conditions and purified. These antibodies were conjugated with the enzyme peroxidase (Boehringer, Mannheim). Peroxidase converts the colourless substrate TMB (Kirkegaard and Perry) into a coloured product in the presence of H2 O2. After acidification of the reaction mixture with H2 SO4, the specific light adsorption at 450 nm, which is a measure of the amount of ApoB-100-associated particles which had been secreted into the culture supernatant by the HepG2 cells, is determined.
The IC50 value indicates the concentration of substance at which the light adsorption is inhibited by 50% in comparison with the control (solvent control without substance).

In general, IC50 refers to the concentration that gives 50% inhibition.

The compound `O=C(NC(CO)c1cccs1)C(c1ccc(OCc2ccc3ccccc3n2)cc1)C1CCCC1` (stereo not shown) [Example 53] came in with an IC50 of 250 nM. In other words, the sub-micromolar range.

`O=C([C@H](c1ccc(OCc2ccc3ccccc3n2)cc1)C1CCCCCC1)N(CCO)c1ccccc1` [Example 127] gave an IC50 of 130 nM.

In turn, `O=C(NC(CO)c1cccc(F)c1)C(c1ccc(OCc2ccc3ccccc3n2)cc1)C1CCCC1` (stereo not shown) [Example 15] returned an IC50 of 500 nM. This IC50 is about 3.8-fold higher than that of the compound before.

For the compound `O=C(NCc1ccccc1)[C@H](c1ccc(OCc2ccc3ccccc3n2)cc1)C1CCCCCC1` [Example 141], the IC50 worked out at 20 nM.
